The target of assay [1] is T1, D(2) dopamine receptor (Homo sapiens, UniProt P14416).
Assay [2] deals with T1, D(2) dopamine receptor. Briefly: Hill coefficients for [3H]-raclopride binding to dopamine D2 receptor high-and low-affinity agonist states.
Assay [3] addresses T2, D(3) dopamine receptor (Homo sapiens, UniProt P35462).
In assay [4] the target is T1, D(2) dopamine receptor. This is another data set of the same source.
The target of assay [5] is T2, D(3) dopamine receptor. This is another data set of the same source.
Assay [6] deals with T3, 5-hydroxytryptamine receptor 1A (Rattus norvegicus, UniProt P19327).
T3 sequence (P19327 whole entry): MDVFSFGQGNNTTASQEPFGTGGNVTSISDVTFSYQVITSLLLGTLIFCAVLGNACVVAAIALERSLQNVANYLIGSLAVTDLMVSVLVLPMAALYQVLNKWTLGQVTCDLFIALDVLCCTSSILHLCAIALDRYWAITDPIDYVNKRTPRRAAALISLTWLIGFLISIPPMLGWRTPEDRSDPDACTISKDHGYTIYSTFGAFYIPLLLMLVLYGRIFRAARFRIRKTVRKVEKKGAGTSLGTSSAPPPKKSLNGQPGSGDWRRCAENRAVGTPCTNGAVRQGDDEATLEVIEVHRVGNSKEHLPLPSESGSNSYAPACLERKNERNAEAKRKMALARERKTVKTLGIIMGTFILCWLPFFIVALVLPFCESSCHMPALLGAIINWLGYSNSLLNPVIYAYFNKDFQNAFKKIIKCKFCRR
Briefly: Inhibition of [3H]8-OH-DPAT binding to 5-hydroxytryptamine 1A receptor.

The target of assay [7] is T1, D(2) dopamine receptor. The assay is described as follows: Inhibition of [3H]raclopride binding to Dopamine receptor D2.

This note sets out measurements from ChEMBL document CHEMBL1129381, “Novel (R)-2-amino-5-fluorotetralins: dopaminergic antagonists and inverse agonists” (J Med Chem, 1996).

T1 sequence (P14416 whole entry): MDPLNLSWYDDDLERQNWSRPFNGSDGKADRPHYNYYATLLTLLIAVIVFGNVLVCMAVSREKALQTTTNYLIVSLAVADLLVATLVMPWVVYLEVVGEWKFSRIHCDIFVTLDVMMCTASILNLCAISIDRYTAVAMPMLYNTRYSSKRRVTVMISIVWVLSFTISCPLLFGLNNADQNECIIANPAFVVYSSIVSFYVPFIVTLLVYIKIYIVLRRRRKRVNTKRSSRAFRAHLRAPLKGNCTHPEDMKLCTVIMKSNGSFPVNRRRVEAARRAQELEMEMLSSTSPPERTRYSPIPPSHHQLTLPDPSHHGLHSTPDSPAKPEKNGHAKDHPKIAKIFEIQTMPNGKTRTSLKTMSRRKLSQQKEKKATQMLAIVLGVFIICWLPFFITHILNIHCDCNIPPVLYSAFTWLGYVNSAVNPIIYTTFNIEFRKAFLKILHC
T2 sequence (P35462 whole entry): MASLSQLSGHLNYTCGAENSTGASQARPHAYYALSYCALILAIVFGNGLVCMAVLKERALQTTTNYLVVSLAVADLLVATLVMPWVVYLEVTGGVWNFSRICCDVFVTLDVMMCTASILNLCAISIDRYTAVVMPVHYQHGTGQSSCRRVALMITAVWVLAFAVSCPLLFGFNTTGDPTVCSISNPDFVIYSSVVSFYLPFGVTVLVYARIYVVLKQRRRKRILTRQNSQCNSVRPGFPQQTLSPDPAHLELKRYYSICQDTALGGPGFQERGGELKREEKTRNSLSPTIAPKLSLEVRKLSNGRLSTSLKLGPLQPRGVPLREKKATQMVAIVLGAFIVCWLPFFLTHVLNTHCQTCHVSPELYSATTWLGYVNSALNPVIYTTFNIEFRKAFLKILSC

Broadly, the Ki is a measure of affinity in units of concentration, obtained from inhibition or displacement. Regarding `N[C@@H]1CCc2c(F)cccc2C1`, the Ki in assay [1] is 864 nM; in assay [3] it was 150 nM; in assay [4], 585 nM; in assay [6], 525 nM. Besides, the nH was 0.81 in assay [2] and 0.99 in assay [5].
In turn, `NCCc1ccc(O)c(O)c1` showed a nH in assay [2] of 0.66.
With `CCCN(C(C)C)[C@@H]1CCc2c(F)cccc2C1`, the Ki in assay [1] came out at 4720 nM; in assay [3], 199 nM; in assay [4], 1530 nM; in assay [6] it was 644 nM. Besides, the nH was 0.94 in assay [2] and 0.91 in assay [5].
Regarding `CC(C)N[C@@H]1CCc2c(F)cccc2C1`, the Ki in assay [1] turned out to be 5940 nM; in assay [3], 1450 nM; in assay [6] it was 627 nM. For the same molecule, the nH is 0.88 in assay [2] and 0.9 in assay [5].
Regarding `CCCN(CCCCN1C(=O)CC2(CCCC2)CC1=O)[C@@H]1CCc2c(F)cccc2C1`, the nH was found to be 0.87 in assay [2] and 0.92 in assay [5]. Besides, the Ki in assay [3] turned out to be 0.251 nM; in assay [7], 16.9 nM; in assay [4] it was 4.94 nM; in assay [6], 0.246 nM.
For the molecule `CCCN(Cc1ccccc1)[C@@H]1CCc2c(F)cccc2C1`, the Ki was 415 nM in assay [1], 23.8 nM in assay [3], 179 nM in assay [4] and 28.8 nM in assay [6]. In addition, the nH worked out at 0.86 in assay [2] and 0.92 in assay [5].
As for `CCCN[C@@H]1CCc2c(F)cccc2C1`, the Ki in assay [1] turned out to be 582 nM; in assay [3] it was 35.8 nM; in assay [4], 167 nM; in assay [6], 108 nM. For the same molecule, the results for the nH in assay [2] and in assay [5] were 0.86 and 0.92, respectively.
Regarding `CCCN(CCC)[C@@H]1CCc2c(F)cccc2C1`, the Ki was 201 nM in assay [1], 8.62 nM in assay [3], 26 nM in assay [4] and 30.2 nM in assay [6]. Besides, the nH is 0.89 in assay [2] and 1.03 in assay [5].
Take `CCCCN[C@@H]1CCc2c(F)cccc2C1`: the Ki is 790 nM in assay [1], 158 nM in assay [3], 254 nM in assay [4] and 440 nM in assay [6]. Besides, the results for the nH in assay [2] and in assay [5] were 0.93 and 0.79, respectively.
As for `CCCCN(CCC)[C@@H]1CCc2c(F)cccc2C1`, the Ki came out at 210 nM in assay [1], 4.42 nM in assay [3], 45.6 nM in assay [4] and 44.5 nM in assay [6]. Moreover, the nH in assay [2] amounted to 0.91; in assay [5] it was 0.98.
For `Fc1cccc2c1CC[C@@H](NCc1ccccc1)C2`, the Ki in assay [1] came to 2830 nM; in assay [3], 1050 nM; in assay [4], 779 nM; in assay [6], 494 nM. The nH is 0.81 in assay [2] and 0.88 in assay [5].
Regarding `O=C1CC2(CCCC2)CC(=O)N1CCCCN[C@@H]1CCc2c(F)cccc2C1`, the nH in assay [2] and in assay [5] was 0.88 each time. The inhibition constant (Ki) in assay [3] was 4.94 nM; in assay [7], 68.2 nM; in assay [4], 37 nM; in assay [6], 6.46 nM.
